Test results reported in US8679459B2, “B ring reduced-D ring oxidized tetrapyrrolic photosensitizers for photodynamic therapy and tumor imaging” (Health Research, Inc., priority 2008, dated 2014).

Columns and labels:
[1] = earlier work; cited from earlier work
Colon-26 cells = experiment: In vitro photosensitizing efficacy (MTT assay); type: cell-based; conditions: for in vitro photosensitizing efficacy among all the compounds tested (fraction survival vs. light dose): 24 h incubation, light 0-2 J/cm^2, MTT; for PDT efficacy compared to the free base analogs: In(III) complex vs. free base
Experimental: In graphs A-E, Y=fraction surviving and X=Light dose in J/cm^2. The numbers in the legends refer to compound number in FIGS. 7-12.
In vitro Photosensitizing Efficacy (MTT Assay]: Colon-26 cells were grown in α-DMEM with 10% fetal calf serum, and penicillin and streptomycin. Cells were maintained in 5% CO2 and 95% air at 100% humidity. For phototoxicity studies, cells were placed in 96-well plates at a density of 5×10^4 cells/well, in complete medium. 24 h later, compounds were added at variable concentration. After 24 incubation in the dark at 37° C., the cells were irradiated with a laser light from an argon pumped dye laser using flunces of 0-2 J/cm^2 at a dose of 5.6 mW/cm^2. After PDT, the cells were washed once, placed in complete medium, and incubated for 48 h. Cells were incubated with 10 μL/well of 4 mg/mL MTT for the final 4 h. The MTT-containing medium was removed, and 100 μL DMSO was added to solubilize the formazan crystals. The absorbance of the wells was read on a microtiter plate reader at a wavelength of 560 nm.^10 The results were plotted as fraction survival vs. the light dose used at the same concentrations. […] These compounds are currently being evaluated for in vivo efficacy, where the pharmacokinetic and the pharmacodynamic properties of the molecules will have a significant impact in efficacy.

| Molecule | PDT activity among alkyl ether analogs of pyropheophorbide-a [1] | in vitro photosensitizing efficacy among all the compounds tested (fraction survival vs. light dose) (Colon-26 cells) | PDT efficacy compared to the free base analogs (Colon-26 cells) |
| --- | --- | --- | --- |
| 3-(1-hexyloxyethyl)-3-devinyl-pyropheophorbide-a [compound 3a] | most effective |  |  |
| CC[C@H]1/C2=C/c3c(C)c4c5[n]3[In]([Cl])[n]3/c(c(C)c(C(C)=O)/c3=C/C(=N2)[C@@H]1C)=C\C1=NC(=C\5CC4=O)/[C@@H](CCC(=O)OC)[C@@H]1C [compound 23] |  | most effective |  |
| CCCCCCOC(C)c1c(C)/c2[n]3/c1=C\C1=NC(=C\c4c(C)c5c([n]4[In]3[Cl])/C(=C3N=C(\C=2)C(C)=C\3CCC(=O)OC)CC5=O)/[C@H](CC)[C@H]1C (some centres unmarked) [compound 24] |  |  | enhanced PDT efficacy |
| CC[C@H]1/C2=C/c3c(C)c4c5[n]3[In]([Cl])[n]3/c(c(C)c(C(C)=O)/c3=C/C(=N2)[C@@H]1C)=C\C1=NC(=C\5CC4=O)/C(CCC(=O)OC)=C1C [compound 22] |  | most effective | enhanced PDT efficacy |
